Columns and labels:
[1] = target: cGMP-specific 3',5'-cyclic phosphodiesterase (Homo sapiens) (UniProt O76074); settings: Compound concentration 10.0 uM
[2] = target: Neuromedin-K receptor (Homo sapiens) (UniProt P29371); assay: Tachykinin NK3 Eurofins-Panlabs radioligand binding assay; settings: Compound concentration 10.0 uM
Bos taurus = species on record: Bos taurus; assay: Phosphodiesterase PDE6 Eurofins-Panlabs enzyme assay; design: substrate with concentration [3H] cGMP + cGMP, incubation time 20 min, incubation temperature 25 °C; settings: Compound concentration 10.0 uM
Homo sapiens [3] = species on record: Homo sapiens; assay: Protein Serine/Threonine Kinase, MAPK14 (p38α) Eurofins-Panlabs enzyme assay; design: substrate with concentration 10 µg/mL Myelin Basic Protein (MBP), incubation time 60 min, incubation temperature 25 °C; settings: Compound concentration 10.0 uM
MAO-A = MAO-A (Homo sapiens, UniProt P21397); assay: Inhibition of Monoamine Oxidase MAO-A at compound concentration of 10.0 uM in the Eurofins-Panlabs enzyme assay (Eurofins_assay_140010); design: substrate with concentration 50 uM Kynuramine, incubation time 60 min, incubation temperature 37 C; settings: recombinant human MAO-A expressed in insect Hi5 cells, probe Kynuramine, 50 uM, compound concentration 10 uM
[4] = target: Protein phosphatase 3 catalytic subunit alpha (Homo sapiens) (UniProt Q08209); assay: Protein Serine/Threonine Phosphatase, Calcineurin, PP2B Eurofins-Panlabs enzyme assay; settings: Compound concentration 10.0 uM
[5] = target: Vasopressin V2 receptor (Homo sapiens) (UniProt P30518); assay: Inhibition of Vasopressin V2 at 10 µM in the Eurofins-Panlabs radioligand binding assay (Eurofins_assay_287610); design: ligand concentration 4 nM; settings: Compound concentration 10.0 uM
Rattus norvegicus [6] = species on record: Rattus norvegicus; assay: Protein Serine/Threonine Kinase, PKC, Non-Selective Eurofins-Panlabs enzyme assay; settings: Compound concentration 10.0 uM
[7] = target: Polyunsaturated fatty acid 5-lipoxygenase (Homo sapiens) (UniProt P09917); assay: Lipoxygenase 5-LO Eurofins-Panlabs enzyme assay; settings: Compound concentration 10.0 uM
[8] = target: Matrix metalloproteinase-14 (Homo sapiens) (UniProt P50281); assay: Peptidase, Matrix Metalloproteinase-14 (MMP-14) Eurofins-Panlabs enzyme assay; design: substrate with concentration; settings: Compound concentration 10.0 uM
[9] = target: Receptor tyrosine-protein kinase erbB-2 (Homo sapiens) (UniProt P04626); assay: Protein Tyrosine Kinase, ERBB2 (HER2) Eurofins-Panlabs enzyme assay; settings: Compound concentration 10.0 uM
[10] = target: Coagulation factor VII (Homo sapiens) (UniProt P08709); assay: Peptidase, Factor VIIa Eurofins-Panlabs enzyme assay; design: substrate with concentration; settings: Compound concentration 10.0 uM
[11] = target: Mitogen-activated protein kinase 3 (Homo sapiens) (UniProt P27361); assay: Inhibition of Protein Serine/Threonine Kinase, MAPK3 (ERK1) at 10 µM in the Eurofins-Panlabs enzyme assay (Eurofins_assay_171000); settings: Compound concentration 10.0 uM
[12] = target: Sodium-dependent dopamine transporter (Homo sapiens, UniProt Q01959); assay: GPCRScan assay: inhibition of DAT; design: radioligand conc. used [nm] 3.6 – 16.0, parental cells stable HEK
[13] = target: Interstitial collagenase (Homo sapiens) (UniProt P03956); assay: Inhibition of Peptidase, Matrix Metalloproteinase-1 (MMP-1) at 10 µM in the Eurofins-Panlabs enzyme assay (Eurofins_assay_114110); settings: Compound concentration 10.0 uM
[14] = target: 5-hydroxytryptamine receptor 2A (Homo sapiens) (UniProt P28223); settings: Compound concentration 10.0 uM
[15] = target: Muscarinic acetylcholine receptor M3 (Homo sapiens) (UniProt P20309); settings: Compound concentration 10.0 uM
[16] = target: Sodium-dependent noradrenaline transporter (Homo sapiens) (UniProt P23975); settings: Compound concentration 10.0 uM
Rattus norvegicus [17] = species on record: Rattus norvegicus; settings: Compound concentration 10.0 uM
[18] = target: 5-hydroxytryptamine receptor 7 (Homo sapiens) (UniProt P34969); settings: Compound concentration 10.0 uM
[19] = target: Prothrombin (Homo sapiens) (UniProt P00734); assay: Peptidase, Thrombin Eurofins-Panlabs enzyme assay; design: substrate with concentration; settings: Compound concentration 10.0 uM
[20] = target: Thromboxane-A synthase (Homo sapiens) (UniProt P24557); assay: Thromboxane Synthase Eurofins-Panlabs enzyme assay; settings: Compound concentration 10.0 uM
[21] = target: Prostaglandin G/H synthase 2 (Homo sapiens) (UniProt P35354); assay: Inhibition of Cyclooxygenase COX-2 at compound concentration of 10.0 uM in the Eurofins-Panlabs enzyme assay (Eurofins_assay_118010); design: substrate with concentration 0.3 uM Arachidonic acid, incubation time 15 min, incubation temperature 37 C; settings: Compound concentration 10.0 uM
[22] = target: Phospholipase A2 (Sus scrofa) (UniProt A0A8D1VEY7); assay: Phospholipase PLA2-I Eurofins-Panlabs enzyme assay; design: substrate with concentration; settings: Compound concentration 10.0 uM
[23] = target: T1, Muscarinic acetylcholine receptor M2 (Homo sapiens) (UniProt P08172); settings: Compound concentration 10.0 uM
T1 sequence (whole entry): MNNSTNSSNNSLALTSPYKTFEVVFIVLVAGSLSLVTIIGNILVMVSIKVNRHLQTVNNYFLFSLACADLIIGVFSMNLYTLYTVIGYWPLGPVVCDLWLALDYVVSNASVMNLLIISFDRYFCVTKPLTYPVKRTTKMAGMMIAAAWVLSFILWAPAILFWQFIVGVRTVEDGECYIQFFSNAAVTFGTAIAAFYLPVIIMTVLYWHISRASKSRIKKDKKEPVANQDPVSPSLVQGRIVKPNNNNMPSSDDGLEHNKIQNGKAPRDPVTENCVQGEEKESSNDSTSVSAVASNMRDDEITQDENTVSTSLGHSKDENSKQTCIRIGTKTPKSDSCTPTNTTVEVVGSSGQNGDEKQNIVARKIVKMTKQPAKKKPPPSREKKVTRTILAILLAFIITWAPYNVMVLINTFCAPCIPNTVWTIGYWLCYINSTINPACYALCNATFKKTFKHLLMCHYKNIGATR

[24] = target: Cannabinoid receptor 1 (Homo sapiens) (UniProt P21554); assay: Inhibition of Cannabinoid CB1 at compound concentration of 10.0 uM in the Eurofins-Panlabs radioligand binding assay (Eurofins_assay_217050); design: ligand concentration 2 nM; settings: Compound concentration 10.0 uM
[25] = target: Disintegrin and metalloproteinase domain-containing protein 17 (Homo sapiens) (UniProt P78536); assay: Peptidase, Tumor Necrosis Factor-alpha Converting Enzyme (TACE) Eurofins-Panlabs enzyme assay; design: substrate with concentration; settings: Compound concentration 10.0 uM
[26] = target: Sodium-dependent serotonin transporter (Homo sapiens) (UniProt P31645); assay: Transporter, Serotonin (5- Hydroxytryptamine) (SERT) Eurofins-Panlabs radioligand binding assay; design: ligand concentration 0.15 nM, non-specific ligand with concentration 10 µM Imipramine, incubation time 3 h, incubation temperature 4 °C; settings: Compound concentration 10.0 uM
Canis lupus familiaris = species on record: Canis lupus familiaris; assay: ATPase, Na+/K+ Eurofins-Panlabs enzyme assay; settings: Compound concentration 10.0 uM
[27] = target: Muscarinic acetylcholine receptor M4 (Homo sapiens) (UniProt P08173); settings: Compound concentration 10.0 uM
[28] = target: GABA-A receptor; anion channel (Rattus norvegicus) (UniProt O09028+P15431+P18506+P18508+P19969+P20236+P23574+P23576+P28471+P28473+P30191+P62813+P63079+P63138+Q91ZM7+Q9ES14); settings: Compound concentration 10.0 uM
[29] = target: T2, Free fatty acid receptor 1 (Homo sapiens, UniProt O14842); assay: FFAR1 binding assay
[30] = target: T2, Free fatty acid receptor 1; assay: FLIPR functional assay (Ca influx activity of CHO cells)
Homo sapiens [31] = species on record: Homo sapiens; assay: Cholecystokinin CCK2 (CCKB) Eurofins-Panlabs radioligand binding assay; design: ligand concentration 0.072 nM, non-specific ligand with concentration 1 µM Sincalide, incubation time 3 h, incubation temperature 25 °C; settings: Compound concentration 10.0 uM
[32] = target: Sodium-dependent serotonin transporter (Homo sapiens) (UniProt P31645); settings: Compound concentration 10.0 uM
[33] = target: C5a anaphylatoxin chemotactic receptor 1 (Homo sapiens) (UniProt P21730); assay: Anaphylatoxin C5a Eurofins-Panlabs radioligand binding assay; settings: Compound concentration 10.0 uM
[34] = target: Delta-type opioid receptor (Homo sapiens) (UniProt P41143); settings: Compound concentration 10.0 uM
Chain of Delta-type opioid receptor (Homo sapiens) (P41143 whole entry): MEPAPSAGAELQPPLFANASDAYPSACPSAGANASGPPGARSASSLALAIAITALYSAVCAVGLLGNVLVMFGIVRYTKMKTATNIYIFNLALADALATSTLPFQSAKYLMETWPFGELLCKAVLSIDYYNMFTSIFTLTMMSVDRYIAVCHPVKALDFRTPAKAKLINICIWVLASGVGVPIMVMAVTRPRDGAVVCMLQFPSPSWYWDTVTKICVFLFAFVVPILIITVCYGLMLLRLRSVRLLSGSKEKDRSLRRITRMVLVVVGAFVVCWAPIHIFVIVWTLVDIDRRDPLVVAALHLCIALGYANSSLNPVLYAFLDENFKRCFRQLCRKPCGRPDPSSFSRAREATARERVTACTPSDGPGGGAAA

T2 sequence (O14842 whole entry): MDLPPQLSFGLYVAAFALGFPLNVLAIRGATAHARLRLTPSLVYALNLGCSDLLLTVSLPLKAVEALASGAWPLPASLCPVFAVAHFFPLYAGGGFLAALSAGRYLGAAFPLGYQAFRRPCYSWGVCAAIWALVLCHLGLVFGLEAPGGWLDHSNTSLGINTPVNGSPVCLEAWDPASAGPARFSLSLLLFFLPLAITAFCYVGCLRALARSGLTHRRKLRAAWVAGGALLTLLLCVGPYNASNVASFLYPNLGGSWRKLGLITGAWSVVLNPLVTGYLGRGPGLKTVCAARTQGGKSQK
Chain of Sodium-dependent dopamine transporter (Q01959 whole entry): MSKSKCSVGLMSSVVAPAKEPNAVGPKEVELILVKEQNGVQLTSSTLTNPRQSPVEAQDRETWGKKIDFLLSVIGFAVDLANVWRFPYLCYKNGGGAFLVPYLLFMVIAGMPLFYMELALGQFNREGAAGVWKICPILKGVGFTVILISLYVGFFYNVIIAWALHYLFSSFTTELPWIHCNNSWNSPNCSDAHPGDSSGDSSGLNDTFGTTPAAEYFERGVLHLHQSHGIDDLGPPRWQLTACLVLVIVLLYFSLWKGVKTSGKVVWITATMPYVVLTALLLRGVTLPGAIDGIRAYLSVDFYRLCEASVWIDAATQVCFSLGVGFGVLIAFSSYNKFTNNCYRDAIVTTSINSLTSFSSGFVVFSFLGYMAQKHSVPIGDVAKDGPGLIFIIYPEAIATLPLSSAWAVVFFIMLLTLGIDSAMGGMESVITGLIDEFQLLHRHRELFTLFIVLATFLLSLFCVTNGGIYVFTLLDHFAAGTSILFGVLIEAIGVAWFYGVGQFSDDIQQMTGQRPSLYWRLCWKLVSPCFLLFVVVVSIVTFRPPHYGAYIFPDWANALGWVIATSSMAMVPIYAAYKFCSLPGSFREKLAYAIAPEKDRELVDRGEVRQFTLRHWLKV
Chain of Sodium-dependent serotonin transporter (Homo sapiens) (P31645 whole entry, looked up): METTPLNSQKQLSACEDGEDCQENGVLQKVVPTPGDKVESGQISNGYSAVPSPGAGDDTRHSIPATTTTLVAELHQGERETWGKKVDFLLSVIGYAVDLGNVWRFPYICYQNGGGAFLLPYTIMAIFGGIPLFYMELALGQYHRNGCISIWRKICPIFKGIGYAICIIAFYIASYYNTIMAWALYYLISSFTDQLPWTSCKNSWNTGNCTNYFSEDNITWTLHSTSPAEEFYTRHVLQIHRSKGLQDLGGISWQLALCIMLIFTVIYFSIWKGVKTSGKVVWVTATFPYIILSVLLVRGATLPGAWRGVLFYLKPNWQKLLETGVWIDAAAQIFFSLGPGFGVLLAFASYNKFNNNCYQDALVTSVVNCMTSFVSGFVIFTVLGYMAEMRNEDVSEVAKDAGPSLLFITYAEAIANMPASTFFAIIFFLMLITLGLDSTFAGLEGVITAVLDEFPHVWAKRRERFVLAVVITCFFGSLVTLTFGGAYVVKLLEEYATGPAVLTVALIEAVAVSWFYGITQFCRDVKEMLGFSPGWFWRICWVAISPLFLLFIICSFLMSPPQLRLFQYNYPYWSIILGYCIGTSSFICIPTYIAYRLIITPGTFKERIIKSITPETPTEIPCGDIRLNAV
Chain of Receptor tyrosine-protein kinase erbB-2 (Homo sapiens) (P04626 whole entry): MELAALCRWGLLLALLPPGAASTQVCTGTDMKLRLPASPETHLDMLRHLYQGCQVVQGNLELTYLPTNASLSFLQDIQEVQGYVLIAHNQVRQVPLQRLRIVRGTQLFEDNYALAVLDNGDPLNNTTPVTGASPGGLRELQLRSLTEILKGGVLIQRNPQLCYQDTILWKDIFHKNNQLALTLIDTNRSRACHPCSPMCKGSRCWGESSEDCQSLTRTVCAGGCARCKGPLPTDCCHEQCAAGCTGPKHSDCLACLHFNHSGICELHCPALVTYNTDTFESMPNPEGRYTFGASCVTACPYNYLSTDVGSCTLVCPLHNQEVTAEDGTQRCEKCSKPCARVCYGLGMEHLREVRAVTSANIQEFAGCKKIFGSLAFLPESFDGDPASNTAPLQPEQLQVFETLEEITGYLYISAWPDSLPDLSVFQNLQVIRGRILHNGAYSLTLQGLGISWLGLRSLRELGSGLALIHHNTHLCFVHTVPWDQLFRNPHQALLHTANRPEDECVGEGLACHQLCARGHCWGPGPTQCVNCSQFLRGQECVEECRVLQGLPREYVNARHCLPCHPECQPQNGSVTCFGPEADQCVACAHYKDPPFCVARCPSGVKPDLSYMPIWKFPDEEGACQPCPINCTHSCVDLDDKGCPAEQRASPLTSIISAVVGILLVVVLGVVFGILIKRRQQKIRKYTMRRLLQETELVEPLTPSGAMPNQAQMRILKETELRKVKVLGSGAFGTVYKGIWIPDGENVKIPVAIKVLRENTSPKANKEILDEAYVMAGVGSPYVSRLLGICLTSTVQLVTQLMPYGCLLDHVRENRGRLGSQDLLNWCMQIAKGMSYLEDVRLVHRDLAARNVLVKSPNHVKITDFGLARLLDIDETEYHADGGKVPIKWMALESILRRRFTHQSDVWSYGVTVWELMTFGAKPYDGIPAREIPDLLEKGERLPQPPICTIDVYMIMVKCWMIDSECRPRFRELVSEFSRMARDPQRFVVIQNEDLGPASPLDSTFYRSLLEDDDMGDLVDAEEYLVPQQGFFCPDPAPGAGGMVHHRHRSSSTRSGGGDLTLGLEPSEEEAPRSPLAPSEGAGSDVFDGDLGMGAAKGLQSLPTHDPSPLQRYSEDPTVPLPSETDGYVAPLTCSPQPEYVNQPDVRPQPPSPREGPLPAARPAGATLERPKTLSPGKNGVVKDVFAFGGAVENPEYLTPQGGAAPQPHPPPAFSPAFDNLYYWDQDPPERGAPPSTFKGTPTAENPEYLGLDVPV
Chain of Sodium-dependent noradrenaline transporter (Homo sapiens) (P23975 whole entry): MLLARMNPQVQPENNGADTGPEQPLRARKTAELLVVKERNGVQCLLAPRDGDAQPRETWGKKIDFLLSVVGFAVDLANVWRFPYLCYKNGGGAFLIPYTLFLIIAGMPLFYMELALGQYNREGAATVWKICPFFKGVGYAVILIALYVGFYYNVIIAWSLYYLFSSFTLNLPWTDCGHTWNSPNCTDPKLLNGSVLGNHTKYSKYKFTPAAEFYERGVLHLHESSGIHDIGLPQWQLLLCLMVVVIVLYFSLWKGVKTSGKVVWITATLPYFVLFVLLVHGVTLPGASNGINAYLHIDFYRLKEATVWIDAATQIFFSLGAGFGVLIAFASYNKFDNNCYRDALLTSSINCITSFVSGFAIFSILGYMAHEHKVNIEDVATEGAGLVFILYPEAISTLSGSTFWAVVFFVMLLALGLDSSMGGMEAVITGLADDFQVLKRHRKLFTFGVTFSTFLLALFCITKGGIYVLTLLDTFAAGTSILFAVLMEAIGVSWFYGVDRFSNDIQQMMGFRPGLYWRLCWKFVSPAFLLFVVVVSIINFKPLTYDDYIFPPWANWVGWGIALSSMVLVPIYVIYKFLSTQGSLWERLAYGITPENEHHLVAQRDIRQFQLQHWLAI
Chain of Muscarinic acetylcholine receptor M4 (Homo sapiens) (P08173 whole entry): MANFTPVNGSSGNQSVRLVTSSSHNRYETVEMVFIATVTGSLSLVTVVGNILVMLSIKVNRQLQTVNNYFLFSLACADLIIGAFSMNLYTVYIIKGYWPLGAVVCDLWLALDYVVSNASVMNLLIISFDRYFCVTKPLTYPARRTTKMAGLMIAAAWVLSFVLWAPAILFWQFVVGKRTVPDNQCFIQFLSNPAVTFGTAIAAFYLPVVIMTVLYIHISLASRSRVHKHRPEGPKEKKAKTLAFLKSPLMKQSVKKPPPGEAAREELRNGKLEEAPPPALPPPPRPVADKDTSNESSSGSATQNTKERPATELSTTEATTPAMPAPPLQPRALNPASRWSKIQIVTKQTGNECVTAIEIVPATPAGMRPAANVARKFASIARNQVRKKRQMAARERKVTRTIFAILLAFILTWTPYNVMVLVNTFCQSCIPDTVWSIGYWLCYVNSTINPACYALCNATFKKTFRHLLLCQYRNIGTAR
Chain of Prostaglandin G/H synthase 2 (Homo sapiens) (P35354 whole entry): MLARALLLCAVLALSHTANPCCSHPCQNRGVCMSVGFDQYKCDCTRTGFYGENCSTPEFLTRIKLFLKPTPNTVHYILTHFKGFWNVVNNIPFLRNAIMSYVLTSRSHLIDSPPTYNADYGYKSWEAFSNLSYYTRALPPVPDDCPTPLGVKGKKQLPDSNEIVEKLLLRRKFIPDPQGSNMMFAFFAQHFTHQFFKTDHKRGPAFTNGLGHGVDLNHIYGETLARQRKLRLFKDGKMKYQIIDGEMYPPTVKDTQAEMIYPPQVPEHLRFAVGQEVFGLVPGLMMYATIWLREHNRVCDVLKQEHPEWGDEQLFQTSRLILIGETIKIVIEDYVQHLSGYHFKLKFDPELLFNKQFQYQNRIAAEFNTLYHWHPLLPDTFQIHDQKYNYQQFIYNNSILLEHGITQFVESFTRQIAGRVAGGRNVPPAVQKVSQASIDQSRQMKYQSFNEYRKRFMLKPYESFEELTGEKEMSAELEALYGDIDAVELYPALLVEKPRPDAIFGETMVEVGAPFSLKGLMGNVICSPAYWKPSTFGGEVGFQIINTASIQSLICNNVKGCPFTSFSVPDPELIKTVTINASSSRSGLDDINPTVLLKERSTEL
Chain of Phospholipase A2 (Sus scrofa) (A0A8D1VEY7 as listed by the source): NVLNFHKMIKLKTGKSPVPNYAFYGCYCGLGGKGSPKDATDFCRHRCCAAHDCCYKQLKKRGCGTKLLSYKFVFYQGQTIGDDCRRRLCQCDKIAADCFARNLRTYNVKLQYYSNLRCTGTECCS

Cc1cc(OC2CCS(=O)(=O)CC2)cc(C)c1-c1cccc(COc2ccc(CCC(=O)O)c(F)c2)c1
inactive: inhibition [1] -6% | inhibition [2] 30% | inhibition (Bos taurus) 20% | inhibition [4] 10% | inhibition [5] 0% | inhibition (Rattus norvegicus [6]) -8% | inhibition [8] 3% | inhibition [9] -9% | inhibition [10] -10% | inhibition [11] 30% | inhibition [13] 2% | inhibition [14] 7.36% | inhibition [15] -0.18% | inhibition [16] 19.1% | inhibition (Rattus norvegicus [17]) -0.04% | inhibition [18] 2.66% | inhibition [19] -1% | inhibition [21] -5% | inhibition [22] 6% | inhibition [23] 2.31% | inhibition [24] 8% | inhibition [25] 36% | inhibition [26] -5% | inhibition (Canis lupus familiaris) 4%
< 5: pKi [12]
> 10 µM: Ki [12]
7% (not active): inhibition at 60 min, 10 µM (MAO-A)
active: inhibition (Homo sapiens [3]) 60% | inhibition [7] 85% | inhibition [20] 64%

Cc1cc(OC2CCS(=O)(=O)CC2)cc(C)c1-c1cccc(COc2ccc(C(=O)O)c(F)c2)c1
> 10 µM (not active): Ki [29] | EC50 [30]
inactive: inhibition [27] -4.72% | inhibition [28] -1% | inhibition (Homo sapiens [31]) 5% | inhibition [32] 2% | inhibition [33] -1% | inhibition [34] -7.07%
